According to PMC6382696, “Drug Repurposing: The Anthelmintics Niclosamide and Nitazoxanide Are Potent TMEM16A Antagonists That Fully Bronchodilate Airways” (Frontiers in Pharmacology, 2019):
Read-outs that look alike come from different tables or passages of the source.

Experiments:
hTMEM16A (abc) = target: T1, hTMEM16A (abc) (Homo sapiens, UniProt Q5XXA6, DEL476-501); assay: IonWorks Barracuda perforated patch clamp, ionomycin-activated TMEM16A inward current; assay type: cell-based; details: 10 μM ionomycin, Vhold −30 mV
T1 sequence (Q5XXA6 with tags, fused parts or gaps isoform Q5XXA6-5 DEL539-564): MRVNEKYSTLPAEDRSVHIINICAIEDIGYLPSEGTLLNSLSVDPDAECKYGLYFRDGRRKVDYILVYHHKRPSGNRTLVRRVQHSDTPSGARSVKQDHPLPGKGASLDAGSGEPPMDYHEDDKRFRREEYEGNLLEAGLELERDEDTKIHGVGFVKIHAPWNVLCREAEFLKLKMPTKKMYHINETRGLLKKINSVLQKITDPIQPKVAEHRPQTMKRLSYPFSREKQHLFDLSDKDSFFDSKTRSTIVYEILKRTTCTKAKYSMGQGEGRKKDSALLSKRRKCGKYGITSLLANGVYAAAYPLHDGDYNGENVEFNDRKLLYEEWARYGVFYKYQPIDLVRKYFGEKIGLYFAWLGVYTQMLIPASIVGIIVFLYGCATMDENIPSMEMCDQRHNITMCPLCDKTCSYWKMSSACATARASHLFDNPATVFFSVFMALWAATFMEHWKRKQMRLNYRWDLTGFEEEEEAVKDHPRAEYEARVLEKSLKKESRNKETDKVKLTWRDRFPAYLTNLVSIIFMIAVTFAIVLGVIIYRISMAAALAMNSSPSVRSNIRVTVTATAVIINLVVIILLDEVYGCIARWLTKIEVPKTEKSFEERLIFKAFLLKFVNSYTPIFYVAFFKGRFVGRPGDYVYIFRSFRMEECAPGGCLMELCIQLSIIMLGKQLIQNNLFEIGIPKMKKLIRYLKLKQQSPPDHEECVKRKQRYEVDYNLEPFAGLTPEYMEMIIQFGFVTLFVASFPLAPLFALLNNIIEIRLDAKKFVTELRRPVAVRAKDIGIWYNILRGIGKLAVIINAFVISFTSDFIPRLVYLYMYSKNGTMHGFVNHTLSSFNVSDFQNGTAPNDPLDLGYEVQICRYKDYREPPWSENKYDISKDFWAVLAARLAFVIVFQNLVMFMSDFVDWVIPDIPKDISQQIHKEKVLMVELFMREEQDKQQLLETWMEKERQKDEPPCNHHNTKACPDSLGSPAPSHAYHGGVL
Text: HEK293 cells stably expressing the human TMEM16A (abc) variant and CHO cells expressing the human CFTR gene were from ChanTest. The IonWorks Barracuda (IWB) procedure and data provided are from outsourced studies performed at ChanTest (Charles River Discovery, Cleveland, OH, United States) who were blinded as to the identity of the test articles or compounds provided by Amgen. As a control, benchmark inhibitors CFTRinh-172, GlyH-101 and benzbromarone were included amongst the blinded compounds submitted and performed as expected.
For IonWorks Barracuda studies on TMEM16A compounds, in brief eight test article concentrations were applied to naïve cells (n = 4, where n = the number of replicate wells/concentration) via steel needles of a 384-channel pipettor. Each application consists of addition of 20 μl of 2X concentrated test article solution to the total 40 μl final volume of the extracellular well of the Population Patch ClampTM (PPC) planar electrode. This addition is followed by mixing (one time) of the PPC well content. Duration of exposure to each test article concentration was at least 5 min. The electrophysiology procedure used: (a) Intracellular solution containing 50 mM CsCl, 90 mM CsF, 5 mM MgCl2, 1 mM EGTA, 10 mM HEPES, adjusted to pH 7.2 with CsOH; (b) Amphotericin B for patch perforation, where 30 mg/ml stock solution of amphotericin B in DMSO is added to internal solution to final concentration of 33.3 μg/ml; (c) Extracellular solution containing HEPES-buffered physiological saline (HBPS): 137 mM NaCl, 4 mM KCl, 1.8 mM CaCl2, 1 mM MgCl2, 10 mM HEPES, 10 mM glucose, adjusted to pH 7.4 with NaOH; and (d) Ionomycin stimulation of chloride currents where 10 μM ionomycin is added to all test solutions including vehicle and positive controls. […] After establishment of a whole-cell configuration via patch perforation (∼7–10 min exposure to amphotericin B), membrane currents were recorded using the on-board patch clamp amplifiers. […]

primary human ASM cells [1] = assay: Methacholine-induced calcium flux in primary human ASM cells; assay type: cell-based; details: methacholine 10 M (so in the source), read-out: IC50 block of methacholine calcium flux
Description: (§1) 1.1 Measuring antagonist effects on bronchial smooth muscle cell (BSMC) pro-contractile calcium flux.
(§2) Human BSMCs were obtained from Lonza, resuspended, cultured and serum starved for 24 hours as described for the histamine membrane potential assay. Compounds and dilutions were prepared in same manner, except they were serially diluted in Assay Buffer (2 mM CaCl2, 1 mM MgCl2, 4.5 mM KCl, 155 mM NaCl, 5 mM HEPES, 10 mM glucose, pH7.4) to 4X the final concentration. A Calcium Indicator Working Solution (10 ml) was prepared by adding 1ml BD PBX Signal Enhancer (Cat# 51 -9006254) and 10 µl of BD Calcium Indicator (BD Cat# 850000 resuspended in 100% DMSO) to 9 ml Assay Buffer. Following serum starvation of the BSMCs, culture media was aspirated off and 50µl of Calcium Indicator Working Solution was added t o each well of microtiter plate. Twenty-five microliters of the 4X serially diluted compounds were then added and cells were incubated with compounds for 30 minutes at room temperature. Twenty -five microliters of a 4X histamine or methacholine solution (where 1X reflects EC 80-EC100 concentration from earlier validation of aliquot of cells from same donor) was then added and fluorescence changes were measured by a FLIPR-Tetra or internal FlashFluor instrument. In some experiments the TMEM16A opener, Eact, was used in place of histamine or methacholine.

primary human ASM cells [2] = assay: Eact-induced calcium flux in primary human ASM cells; assay type: cell-based; details: Eact 10 M (so in the source), read-out: IC50 block of Eact calcium flux
Description: as §1, §2

[3] = test system: human bronchial smooth muscle cells; assay: Histamine-induced depolarization of human bronchial smooth muscle cells (FLIPR membrane potential); assay type: cell-based; details: donor 199524, 1 M histamine (so in the source), read-out: EC50 inhibition of histamine-induced depolarization (converted)
[4] = test system: Wnt/β-catenin transcription; details: cited from earlier work
[5] = ref Mook et al. (2015), read-out: Mook et al. Wnt/β-catenin TopFlash (IC50)

Structure (SMILES)	effect on ionomycin-activated inward current at −100 mV, perforated patch clamp (hTMEM16A (abc))	IC50 (primary human ASM cells [1]) [µM]	IC50 (primary human ASM cells [2]) [µM]	EC50 [3] [µM]	further results
N#Cc1c(C(F)(F)F)cc(O)n2c1nc1ccccc12 [1PBC]	robust inhibition				
CCc1oc2ccccc2c1C(=O)c1cc(Br)c(O)c(Br)c1 [Benzbromarone]	effective in blocking	7	2	9.9	
CC(C)(C)C1CCc2c(sc(NC(=O)c3ccco3)c2C(=O)O)C1 (stereo not shown) [CaCCinh-A01]		50	7		
O=C(Nc1ccc([N+](=O)[O-])cc1)c1cc(Cl)ccc1O [Cpd 2]					IC50 [4, 5]: 0.99 µM
O=C(Nc1ccc(Cl)cc1)c1cc(Cl)ccc1O [Cpd 5]					IC50 [4, 5]: 1.3 µM
Oc1ccc(Cl)cc1Cc1cc(Cl)ccc1O [Dichlorophen]		106	57	4.1	
O=C(Nc1ccc([N+](=O)[O-])cc1Cl)c1cc(Cl)ccc1O [Niclosamide]					IC50 ([4]; TOPFlash reporter assay, ref Mook et al., 2015, read-out: IC50 inhibition of Wnt/β-catenin transcription): 0.34 µM
O=C(O)c1cccnc1Nc1cccc(C(F)(F)F)c1 [Niflumic Acid]	inhibition (not stimulation)				
CCc1c(C)nc(SCC(=O)Nc2nc(-c3ccc(OC)cc3)cs2)[nH]c1=O [T16Ainh-A01]			15	3.9	
